Source: patent US4725683A, “Fluorophenoxyphenoxypropionates and derivatives thereof” (The Dow Chemical Company, priority 1985, dated 1988)

Experiments:
Assay type in all cases: in vivo
Barnyard Grass = assay: Postemergent activity
Protocol: (§1) Representative compositions of the present invention were evaluated for the postemergence control of species of plants listed in Table A. In these evaluations, pots of the plant species listed in Table A, grown to a height of about 10 cms, were used. Aqueous spray compositions, containing various amounts of 2-[4-(2-fluoro-4-trifluoromethylphenoxy)-phenoxy]propionic acid methy ester, i.e., 125 ppm, 62.5 ppm, 31.25 ppm, 15.6 ppm, 7.8 ppm and 3.9 ppm, respectively, were applied to separate pots. The spray compositions were made by mixing the active ingredient in acetone to 1/2 the final volume, i.e., twice the final concentration. An equal amount of water was added to the active ingredient/acetone mixture wherein the water contained 0.1 percent by weight of TWEEN® 200 surfactant. The application to the plants was made to the point of run-off and was carried out with conventional spraying equipment. Other pots were sprayed with similar compositions containing no toxicant to serve as controls. Thereafter, the pots were maintained under conditions conducive for plant growth. Two weeks after treatment, the pots were examined for plant growth and evaluated on a scale of 0 to 100 where 0 represents no effect and 100 represents complete kill. The results of the examination of the treated pots are set forth below in Table A.
(§2) Substantially the same procedures as those described in Example A were repeated except that the active ingredients were 2-[4-(4-chloro-2-fluorophenoxy)phenoxy]propionic acid; methyl ester and its R-enantiomer and 2-(4-(4-bromo-2-fluorophenoxy)phenoxy propionic acid; methyl ester and its R enantiomer. The results are listed below in Table B.
(§3) In further operations employing the above general procedures and the indicated test compounds the following results were obtained: […]

Crabgrass = assay: Postemergent activity
Protocol: as §1, §2, §3

Wheat = assay: Postemergent activity; settings: Triticum aestivum, post-emergence, 336 h, read-out: % Control
Protocol: as §1, §2, §3

Wild Oats = assay: Postemergent activity; settings: Avena fatua, post-emergence, 336 h
Protocol: as §1, §2, §3

Foxtail [1] = assay: Postemergent control of plant species
Protocol: as §1, §3

Foxtail [2] = assay: Postemergent control of plant species; settings: 250 ppm

## CCOC(=O)CC(O)C(C)Oc1ccc(Oc2ccc(Br)cc2F)cc1 (stereo not shown)
Barnyard Grass; 7.8 ppm
  % Control: 0%
Barnyard Grass; 15.6 ppm
  % Control: 0%
Barnyard Grass; 31.2 ppm
  % Control: 80%
Barnyard Grass; 62.5 ppm
  % Control: 100%
Barnyard Grass; 125 ppm
  % Control: 100%
Barnyard Grass; 250 ppm
  % Control: 100%
Crabgrass; 7.8 ppm
  % Control: 0%
Crabgrass; 15.6 ppm
  % Control: 20%
Crabgrass; 31.2 ppm
  % Control: 20%
Crabgrass; 62.5 ppm
  % Control: 100%
Crabgrass; 125 ppm
  % Control: 100%
Crabgrass; 250 ppm
  % Control: 100%
Wheat; 7.8 ppm
  plant injury at 7.8 ppm: 0%
Wheat; 15.6 ppm
  plant injury at 15.6 ppm: 0%
Wheat; 31.2 ppm
  plant injury at 31.2 ppm: 0%
Wheat; 62.5 ppm
  plant injury at 62.5 ppm: 0%
Wild Oats; 7.8 ppm, read-out: % Control
  pest or weed control at 7.8 ppm: 0%
Wild Oats; 15.6 ppm, read-out: % Control
  pest or weed control at 15.6 ppm: 0%
Wild Oats; 31.2 ppm
  pest or weed control at 31.2 ppm: 0%
Wild Oats; 62.5 ppm, read-out: % Control
  pest or weed control at 62.5 ppm: 0%
Wild Oats; 125 ppm, read-out: % Control
  pest or weed control at 125 ppm: 50%
Wild Oats; 250 ppm, read-out: % Control
  pest or weed control at 250 ppm: 50%
Foxtail [1]; 7.8 ppm
  Percent Control: 0%
Foxtail [1]; 15.6 ppm
  Percent Control: 0%
Foxtail [1]; 31.2 ppm
  Percent Control: 0%
Foxtail [1]; 62.5 ppm
  Percent Control: 100%
Foxtail [1]; 125 ppm
  Percent Control: 100%
Foxtail [2]
  Percent Control: 100%
